Some test systems named below: A498; A549; ACHN; COLO 205; HCT-15; HOP-62; M14; NCI-H226; NCI-H23; NCI-H522; OVCAR-8; SF-268; SK-MEL-2; SN12C; SNB-19; SNB-75; TK-10; UO-31; 786-0; HCC 2998.
What all share (assay): NCI tumour cell line growth inhibition, 48 h

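Growth conditions: 96-well plates. Treatment: test compound, 48 hours, 5 concentrations. Analysis: linear interpolation between bracketing concentrations; unreached endpoints set to highest concentration. At the GI50, growth is halved.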 The source made the active and inactive calls. No stated cut-off is given here; in the data, active = GI50 up to about 1.1 µM and inactive = higher.

For the compound `CC(=O)c1nccc2c1c(C)nc1ccccc12`, the GI50 with A498 was 48 µM (inactive); in the test with A549, 65 µM (inactive); in the test with ACHN it was > 100 µM (inactive); in the test on COLO 205, > 100 µM (inactive); with HCT-15 it was 58.9 µM; in the test with HOP-62, 69.8 µM (inactive). Besides, the GI50 in the test with M14 was > 100 µM (inactive); in the test on NCI-H226, 10.4 µM (inactive); in the test with NCI-H23, 79.8 µM (inactive); in the test on NCI-H522 it was 47.5 µM (inactive); in the test on OVCAR-8, 72.6 µM (inactive); in the test with SF-268, 64.3 µM (inactive). The GI50 with SK-MEL-2 was > 100 µM (inactive); with SN12C, 32.7 µM (inactive); in the test with SNB-19, > 100 µM (inactive); in the test with SNB-75, > 100 µM (inactive); with TK-10, > 100 µM (inactive); in the test with UO-31, 55.7 µM (inactive).
For `CC(NC(=O)c1ccc(OP(=O)(OCC2=CC(=O)c3ccccc3C2=O)N(C)CCCCCl)cc1)c1ccc(OCC2CCCCC2)c(C(N)=O)c1` (centres undefined), the GI50 in the test with 786-0 is 14.6 µM (inactive); with A549, 1.67 µM (inactive); in the test with ACHN it was 12.7 µM (inactive); in the test on COLO 205, 7.28 µM (inactive); in the test with HCC 2998 it was 0.0149 µM (active); with HCT-15, 12.2 µM. The GI50 with HOP-62 is 18 µM (inactive); in the test on M14, 3.32 µM (inactive); in the test on NCI-H226, 11.1 µM (inactive); in the test on NCI-H23, 2.7 µM (inactive); in the test on NCI-H522, 11.8 µM (inactive); in the test on OVCAR-8 it was 13.4 µM (inactive). Besides, the GI50 with SF-268 was 13.4 µM (inactive); with SK-MEL-2, 14.8 µM (inactive); in the test on SN12C, 13.4 µM (inactive); with SNB-19, 14.4 µM (inactive); in the test with SNB-75 it was 0.0122 µM (active); with TK-10 it was 25.1 µM (inactive). Also, the GI50 with UO-31 was 10.2 µM (inactive).
For the compound `CC1(C)C2CCC3(OCCO3)C1C1OC12` (centres undefined), the GI50 was > 100 µM (inactive) with 786-0; > 100 µM (inactive) in the test on A498; > 100 µM (inactive) with A549; > 100 µM (inactive) in the test with ACHN; > 100 µM (inactive) with COLO 205; > 100 µM in the test on HCT-15. Moreover, the GI50 in the test on M14, with NCI-H226, in the test with NCI-H23, in the test with NCI-H522, with OVCAR-8 and with SF-268 was > 100 µM (inactive) each time. For the same compound, the GI50 in the test with SK-MEL-2 is > 100 µM (inactive); in the test with SNB-19 it was 30 µM (inactive); in the test on SNB-75 it was 41.4 µM (inactive); in the test on TK-10, > 100 µM (inactive); with UO-31, > 100 µM (inactive).
In the case of `CCOC(=O)c1nc2ccc(C(F)(F)F)cc2nc1NCc1ccc(Cl)c(Cl)c1`, the GI50 in the test with 786-0 was 25.1 µM (inactive); in the test with A498 it was 30.2 µM (inactive); in the test with A549, 35.2 µM (inactive); in the test with ACHN, 22.5 µM (inactive); in the test with COLO 205 it was 31.8 µM (inactive); with HCT-15, 36.1 µM. Besides, the GI50 in the test with HOP-62 is 21.1 µM (inactive); in the test on M14, 36.9 µM (inactive); in the test on NCI-H226, 30.8 µM (inactive); in the test with NCI-H23, 40 µM (inactive); in the test on NCI-H522, 11.4 µM (inactive); in the test on OVCAR-8 it was 37.1 µM (inactive). Besides, the GI50 was 39.9 µM (inactive) in the test with SF-268; 63.8 µM (inactive) with SK-MEL-2; 28.3 µM (inactive) in the test on SNB-19; 14 µM (inactive) in the test on SNB-75; 34.2 µM (inactive) with TK-10; 45 µM (inactive) in the test on UO-31.
As to `Cc1ccc(NC(=O)/C(=N\Nc2ccc([N+](=O)[O-])cc2[N+](=O)[O-])C2C(=O)NC(=O)NC2=O)cc1`, the GI50 in the test on 786-0 is > 100 µM (inactive); in the test with A498, > 100 µM (inactive); in the test on A549 it was 50.9 µM (inactive); with ACHN it was 23.3 µM (inactive); in the test on COLO 205 it was > 100 µM (inactive); with HCT-15, 6.31 µM. Also, the GI50 in the test with HOP-62 is 27.5 µM (inactive); in the test with M14, 89.7 µM (inactive); in the test with NCI-H226, > 100 µM (inactive); with NCI-H23, > 100 µM (inactive); in the test with NCI-H522, > 100 µM (inactive); in the test on OVCAR-8 it was 55.7 µM (inactive). In addition, the GI50 in the test with SF-268 is 32 µM (inactive); with SN12C it was > 100 µM (inactive); in the test with SNB-19, > 100 µM (inactive); in the test with SNB-75 it was 26.7 µM (inactive); in the test with TK-10, > 100 µM (inactive); in the test on UO-31, 15.5 µM (inactive).
In the case of `O=C1/C(=C/c2ccccc2)CN(C(=O)C(Cl)(Cl)Cl)C/C1=C\c1ccccc1`, the GI50 in the test on 786-0 was 2.89 µM (inactive); in the test on A498 it was 4.24 µM (inactive); in the test on A549, 13.9 µM (inactive); in the test with ACHN, 2.01 µM (inactive); with COLO 205, 2.25 µM (inactive); in the test with HCT-15 it was 1.68 µM. Besides, the GI50 is > 10 µM (inactive) with HOP-62; 1.26 µM (inactive) with M14; 2.37 µM (inactive) in the test on NCI-H23; 2.13 µM (inactive) with NCI-H522; 1.73 µM (inactive) in the test on OVCAR-8; 3.33 µM (inactive) in the test on SF-268. Besides, the GI50 in the test on SK-MEL-2 was 2.91 µM (inactive); in the test on SN12C it was 1.72 µM (inactive); with SNB-19, 2.82 µM (inactive); with SNB-75, 3.27 µM (inactive); in the test on TK-10, 2.57 µM (inactive); with UO-31, 2.59 µM (inactive).
Turning to `CC1(C)OCC[C@@H]1[Si](C)(C)C`, the GI50 in the test on 786-0 is > 100 µM (inactive); with A498 it was 30.1 µM (inactive); in the test with A549, > 100 µM (inactive); with ACHN it was 27.5 µM (inactive); in the test with COLO 205, > 100 µM (inactive); in the test with HCT-15 it was 32.4 µM. The GI50 in the test with M14 was > 100 µM (inactive); in the test on NCI-H226, 70.1 µM (inactive); with NCI-H23, 53.6 µM (inactive); with NCI-H522, 15.3 µM (inactive); with OVCAR-8, > 100 µM (inactive); in the test with SF-268, 36.2 µM (inactive). Moreover, the GI50 in the test on SK-MEL-2 was > 100 µM (inactive); with SN12C, > 100 µM (inactive); in the test on SNB-19, > 100 µM (inactive); in the test on SNB-75 it was 52.1 µM (inactive); in the test on TK-10, 73.5 µM (inactive); in the test on UO-31, 42.9 µM (inactive).
Turning to `N#Cc1c(Nc2ccc(F)cc2)[n+]([O-])c2ccc(Cl)cc2[n+]1[O-]`, the GI50 in the test with 786-0 was 3.34 µM (inactive); with A498 it was 2.88 µM (inactive); in the test on A549, 0.568 µM (active); in the test with COLO 205, 1.95 µM (inactive); in the test on HCT-15, 2.5 µM; with HOP-62, 4.52 µM (inactive). For the same compound, the GI50 in the test with M14 is 3.36 µM (inactive); in the test on NCI-H226 it was 4.51 µM (inactive); in the test with NCI-H23, 3.84 µM (inactive); with OVCAR-8, 3.55 µM (inactive); in the test with SF-268, 2.53 µM (inactive); in the test with SK-MEL-2, 3.67 µM (inactive). The GI50 was 2.55 µM (inactive) in the test with SN12C; 6 µM (inactive) in the test on SNB-19; 17.7 µM (inactive) with SNB-75; 19.9 µM (inactive) in the test on TK-10; 4.58 µM (inactive) in the test with UO-31.
For the compound `COC1CC(=O)C2C(=O)N(c3ccccc3)C(=O)C23C(C(=O)c2ccccc2)=C(C)NC13O` (centres undefined), the GI50 with 786-0 was 2.12 µM (inactive); in the test with A498, 17.2 µM (inactive); with A549, 34.4 µM (inactive); in the test on ACHN it was 12.9 µM (inactive); in the test with COLO 205, 12.3 µM (inactive); in the test with HCT-15, 8.49 µM. Besides, the GI50 in the test with HOP-62 was 20.2 µM (inactive); in the test on M14 it was 15.5 µM (inactive); with NCI-H23, 15.3 µM (inactive); with NCI-H522, 1.91 µM (inactive); in the test on OVCAR-8, 21.1 µM (inactive); in the test on SF-268 it was 3.84 µM (inactive). In addition, the GI50 with SK-MEL-2 was 17.1 µM (inactive); in the test on SN12C it was 16.6 µM (inactive); with SNB-19 it was 21.4 µM (inactive); in the test on TK-10 it was 6.32 µM (inactive); in the test on UO-31, 11.4 µM (inactive).
As for `O=C1OC(c2ccc(O)cc2)(c2ccc(O)cc2)c2ccc(Cl)c3cccc1c23.O=C1OC(c2ccc(O)cc2)(c2ccc(O)cc2)c2cccc3c(Cl)ccc1c23`, the GI50 is 19.1 µM (inactive) in the test with A498; 18.8 µM (inactive) in the test with A549; 13.9 µM (inactive) in the test with ACHN; 1.03 µM (active) with COLO 205; 10.8 µM in the test on HCT-15; 3.94 µM (inactive) in the test on HOP-62. For the same compound, the GI50 is 10 µM (inactive) with M14; 12.9 µM (inactive) in the test with NCI-H226; 11.1 µM (inactive) with NCI-H23; 14.4 µM (inactive) in the test with OVCAR-8; 15.9 µM (inactive) with SF-268; 12.6 µM (inactive) in the test on SK-MEL-2. For the same compound, the GI50 with SN12C is 8.47 µM (inactive); in the test on SNB-19, 23.1 µM (inactive); in the test on TK-10, 13.6 µM (inactive); in the test on UO-31 it was 23 µM (inactive).
For the compound `Cc1ncc([N+](=O)[O-])n1CC[N+](C)([O-])CCCCn1ccnc1[N+](=O)[O-]` (centres undefined), the GI50 with 786-0 was > 100 µM (inactive); in the test on A498 it was > 100 µM (inactive); in the test on A549, > 100 µM (inactive); with ACHN, > 100 µM (inactive); with COLO 205, > 100 µM (inactive); in the test on HCT-15, > 100 µM. In addition, the GI50 with HOP-62, in the test on M14, with NCI-H226, in the test on NCI-H23, with NCI-H522 and with OVCAR-8 was > 100 µM (inactive) in each case. For the same compound, the GI50 in the test with SF-268, with SK-MEL-2, in the test on SN12C, in the test with SNB-75, in the test on TK-10 and in the test with UO-31 was > 100 µM (inactive) throughout.

These data come from ChEMBL document CHEMBL1201862, “PubChem BioAssay data set” (2004).
